# Experimental data from ChEMBL document CHEMBL3507680, “University of Dundee, Gates Library screen for HepG2 cell viability”.
# Assay: Human HepG2 cell viability assay in 384 well format
# Assay type: toxicity, cell-based
# Parameters: dose 125 nL, time 70.5 hour; cytotoxicity at 70.5 h: concentration not given beside the values
# Conditions: HepG2 cells, read-out: Inhibition
row,Compound,cytotoxicity at 70.5 h
1,CC(C)c1nn(C)cc1CNC1CCOc2ccccc21 (centres undefined),-7.85%
2,Cc1cc(=O)[nH]c(=O)n1COCCOCc1ccccc1,25.1%
3,Cc1noc(C)c1CNC(=O)C1(NS(C)(=O)=O)CCCCC1,-5.85%
4,COCCNC(=O)Cn1c(-c2cccc(Cl)c2)nc(C)c(CCO)c1=O,0.393%
5,O=C(CN1CCCc2c(F)cc(Br)cc21)N1CCCC1,3.5%
6,CCc1cc(=O)[nH]c(-n2nc(C3CC3)cc2NC(=O)C2CC2)n1,42.7%
7,Cc1cc(C(F)(F)F)nc(CNC(=O)CCC2CCCN(C)C2)n1 (centres undefined),-6.3%
8,CCCS(=O)(=O)NCc1cccnc1OCc1ccccc1,-7.41%
9,CC(=O)NCCNC(=O)Nc1ccc(Br)cc1C(C)C,15.2%
10,CC1CCCCN1CCNC(=O)c1ccn(-c2ccc(F)cc2)n1 (centres undefined),35.6%
11,CC(=O)NCC(=O)N1CC[C@H](OCC2CC2)[C@@H]1Cc1cccnc1,-8.28%
12,O=C(CCc1cccc(C2CCNCC2)n1)N1CCCCC1,-12.2%
13,O=C(Nc1cccnc1)C1CCCN(c2cc(-n3cccn3)ncn2)C1 (centres undefined),4.07%
14,CCN1CC2(CCC1=O)CCN(Cc1nncn1C(C)C)CC2,-5.12%
15,COC(=O)N1CC[C@@]2(C1)[C@H](OC)CN(c1ccccc1)S2(=O)=O,-11.4%
16,O=C(c1cccc2c1OCCO2)N1CCCC(n2cccn2)C1 (centres undefined),-8.22%
17,Cc1ccc(S(=O)(=O)N2CC(C)Oc3ncccc32)c(C)c1 (centres undefined),-4.94%
18,CN1CCOC(C(=O)N(C)c2ccc3c(c2)CCO3)C1 (centres undefined),-18.1%
19,CC1(c2nccs2)CCN(C(=O)CC2CCOCC2)CC1,-9.57%
20,Cn1cc(CN2CCC3(CC2)C(=O)Nc2ccccc23)cn1,-6.51%
21,Cc1nccn1C1CCCN(C(=O)c2ccc3c(c2)OCCCO3)C1 (centres undefined),-0.919%
22,CC(C)OCCC(=O)Nc1cccc(N2CCN(CC3CC3)CC2)c1,-4.83%
23,CCN1C[C@H]2C3(CCN(C(=O)NC(C)C)CC3)CC[C@@]2(C(=O)N(C)C)C1,-8.21%

row,Compound,cytotoxicity at 70.5 h
1,CC(C)c1nccn1C1CCCN(C(=O)CCc2cscn2)C1 (centres undefined),-6.33%
2,Cc1nc(C)n(C2CCCN(C(=O)c3cscn3)C2)n1 (centres undefined),-2.85%
3,OC(CNCCn1cccn1)c1ccc2c(c1)OCCO2 (centres undefined),-2.85%
4,c1cnn(CC2CCCN2Cc2ccc(-n3cccn3)cc2)c1 (centres undefined),-8.68%
5,CN(CCc1noc(C2CC2)n1)C(=O)CCc1cc2n(n1)CCCNC2,-9.33%
6,Cc1ccc(NC2CCN(C(=O)Cc3cccs3)CC2)nn1,2.71%
7,O=C(NCCOc1ccc(C(F)(F)F)cn1)c1ccoc1,-6.01%
8,CC(=O)N1CCN(c2nc(C(F)(F)F)nc3sc(C)c(C)c23)CC1,-9.75%
9,COCCC(=O)N1C[C@H]2CCC[C@@]2(COC)C1,-6.36%
10,CS(=O)(=O)NC[C@]12COC[C@H]1CN(C(=O)c1ncccn1)C2,17.4%
11,O=C(C1CCCCC1)N1C[C@H]2CNC[C@H]2C1,-11%
12,CCN1CC(C(=O)NCCn2cccc2)CC1=O (centres undefined),-4.38%
13,C[C@H]1C[C@@H]2CCN(C(=O)c3ccncc3)C[C@H]2O1,-2.95%
14,CCOc1ccc(Cl)c(C(=O)N2CCCC(c3ccn[nH]3)C2)n1 (centres undefined),-2.59%
15,CN(Cc1cc[nH]n1)C(=O)C1CC(=O)N(Cc2ccncc2)C1 (centres undefined),-0.62%
16,O=C(NCc1cncc2c1CCN(Cc1ccccc1)C2)C1CC1,9.59%
17,COCc1nc(C(=O)N2CCCC2c2cc(C)on2)cs1 (centres undefined),-9.83%
18,Cc1cnccc1CN1Cc2ccccc2O[C@]2(CC[C@H](CO)CC2)C1,15.1%
19,Cc1ccc(C)c(NC(=O)N2CCC3(CC2)NC(=O)CC3C(=O)O)c1 (centres undefined),-2.48%
20,CN(C)c1cc(C2CCCN2)ccn1 (centres undefined),0.143%
21,CC(=O)c1ccc(NC(=O)NC(C(=O)N(C)C)C(C)C)cc1 (centres undefined),-4.29%
22,CN1CCN(C2CCN(CCOc3ccc(F)cc3)CC2)C1=O,18.4%
23,Cc1nn(C)c(N(C)C)c1CNCc1cnn(Cc2ccccc2)c1,-2.79%

row,Compound,cytotoxicity at 70.5 h
1,COc1ccc(Cn2nc(C(N)=O)ccc2=O)c(Cl)c1,-3.77%
2,CN1CC(=O)N(C2CCC2)Cc2c(NC3CCNCC3)ncnc21,-3.78%
3,Cc1ccccc1-n1cnc(Cl)c1C(=O)O,-8.21%
4,CC(C)C1CC(=O)Nc2c1cnn2Cc1ccco1 (centres undefined),-15.8%
5,CCCc1nc(C(C)(C)NC(=O)C2CC(=O)N(CC(C)C)C2)no1 (centres undefined),-4.84%
6,Cc1nn(C)c(N(C)C)c1CNC(C)COc1cccc(F)c1 (centres undefined),23.8%
7,CC(NC(=O)NCC1(c2ccc(F)cc2)CCC1)c1nncn1C (centres undefined),-16.8%
8,CC(C)CCN(C(=O)Nc1cccc(C(=O)N(C)C)c1)C1CC1,-7.58%
9,COCC(=O)N1CCCC1c1ccc(C(=O)NCCN2CCCCC2)s1 (centres undefined),-10.2%
10,O=C1NC2(Nc3ncccc31)C(=O)Nc1c2ccc(Cl)c1F (centres undefined),-6.95%
11,CC(C)c1nc2n(n1)CC(NCC(=O)N(C)Cc1cccs1)CC2 (centres undefined),-13.3%
12,O=C(c1ccc(Cl)cc1)N1CCCn2nnc(Cn3cccn3)c2C1,1.05%
13,CCN(C)c1ncc2c(c1C(=O)O)CCN(C1CCOC1)C2 (centres undefined),0.989%
14,Cc1noc(C)c1CCC(=O)NCC1(O)CCN(c2ccccn2)C1 (centres undefined),-6.52%
15,COCc1noc(CC2CN(c3ncnc4sc(C)c(C)c34)CCO2)n1 (centres undefined),1.73%
16,O=C(CCn1ccc(=O)[nH]c1=O)N1CCC(Oc2ccccn2)CC1,-4.88%
17,O=C(NC1CC1)[C@@H]1CN(Cc2ccc3c(c2)OCO3)C[C@H]2OCC[C@H]21,-1.06%
18,CC(C)c1nccn1C(C)C(=O)NC1Cc2ccccc2C1 (centres undefined),-1.16%
19,O=C(O)C1(n2cccn2)CCN(c2nc(-c3ccccc3)no2)CC1,0.502%
20,CC(=O)NCCC1CCCCN1C(=O)c1cccc(CCC(C)(C)O)c1 (centres undefined),-6.03%
21,Cn1cnc(S(=O)(=O)NCCCN2CCCC2=O)c1Cl,-2.39%
22,Cc1cc(CN2CCN(C(=O)c3sccc3C3CC3)CC2)no1,-7.26%
23,O=C(O)c1c(Cl)ncn1-c1cccc2ccccc12,-4.51%

row,Compound,cytotoxicity at 70.5 h
1,O=C(O)c1ccc(S(=O)(=O)Nc2c(F)cccc2-n2cccn2)cc1,-1.35%
2,CN(C)CC(=O)N1Cc2nc(C(=O)N3CCCN(C)CC3)oc2C1,-7.8%
3,Cc1nc(COCc2cnc3n2CCN(C)C3C)cs1 (centres undefined),-1.73%
4,CN(C)C(=O)CC1CC2(CCNCC2)c2cc(F)ccc21 (centres undefined),-8.47%
5,Cc1nn(C)c(N2CCOCC2)c1CNCc1cscn1,-9.09%
6,CCC(NC(=O)c1ccoc1)c1ccccc1OCC(=O)N1CCCC1 (centres undefined),-3.93%
7,COc1cccc2cc(CNCc3ccnc(N(C)C)c3)oc12,7.6%
8,CN1CCN(C)c2cc(NC(=O)c3cc[nH]n3)ccc2C1,6.77%
9,COCCNC(=O)c1nc(-c2cn(C)cn2)n2ccccc12,-7.59%
10,Cc1nn(CCNS(=O)(=O)c2ccccc2)c(C)c1Cl,-7.1%
11,Cc1cc(-c2ccccc2)nc(C2CCCN2S(C)(=O)=O)n1 (centres undefined),-5.33%
12,CCCC(=O)N(C)Cc1cccc(OC(C)C)c1,9.69%
13,Cc1nc(C2CCN(C(=O)c3cnc(N(C)C)nc3)CC2)c2sccn12,1.86%
14,O=C(NCCc1ccccc1)NCC(O)c1cccs1 (centres undefined),-14%
15,O=c1cnc2ccccc2n1CCCn1ccnc1,-16.2%
16,O=C(NCc1nncn1C1CC1)c1ccccc1OCC1CC1,-5.93%
17,COC(=O)c1cc(C(=O)N2CCC(C)CC2)n(-c2ccccc2)n1,-6.41%
18,CS(=O)(=O)c1ccc(NC(=O)NCCC2=CCCCC2)cc1,-10.3%
19,CC1CCN(C(=O)C(C)n2cc(Br)cn2)CC1 (centres undefined),-3.34%
20,CC(=O)N(CCc1ccccc1)CC(=O)NC1(C#N)CC1,-0.397%
21,O=C(C[S+]([O-])Cc1ccc(F)cc1Cl)N1CCc2sccc2C1 (centres undefined),-6.4%
22,C[S+]([O-])CCNC(=O)Nc1cc(F)ccc1-n1cccn1 (centres undefined),15.9%
23,COCCN1CC2(CCCN(c3ncc(Cl)cc3F)C2)CCC1=O (centres undefined),3.19%

row,Compound,cytotoxicity at 70.5 h
1,O=c1cc(C2CCNCC2)nc(CCc2ccccn2)[nH]1,-2.52%
2,O=c1[nH]c(CN(Cc2ccco2)C2CCCC2)nc2ccccc12,5.19%
3,CNC(=O)CS(=O)(=O)C1CCN(S(=O)(=O)c2ccccc2Cl)CC1,23.7%
4,Cc1cc2c(=O)n3c(nc2s1)CCN(C(=O)c1ccn(C)n1)CC3,-5.05%
5,CS(=O)(=O)N1C[C@H]2CN(CC3CC3)C(=O)[C@H]2C1,-2.81%
6,Cc1ccc(Cl)c(NC(=O)c2cccc(CN3CC[C@H](O)C3)c2)c1,-5.5%
7,Cc1cc(C)n(C2CN(CC(=O)NCC(C)(C)N3CCOCC3)C2)n1,0.262%
8,OC(CNCCn1cccn1)c1cccc(F)c1 (centres undefined),-7.66%
9,COc1c(C2CCCN2c2ncnc3c2CCC3)c(C)nn1C (centres undefined),-2.31%
10,CC(=O)Nc1nc(C(=O)N2CCCC2c2noc(C(C)C)n2)cs1 (centres undefined),1.7%
11,CCn1nc(C)c(CN(CCCN(C)C)Cc2ccccn2)c1C,21.3%
12,N#Cc1ccsc1C(=O)N1CCCN(Cc2cscn2)CC1,5.01%
13,CC(C)=CCC1(C(=O)O)CCCN(CCC(=O)NC2CC2)C1 (centres undefined),-25.9%
14,Cc1noc(C)c1CN1CCc2c(CNc3nccs3)n[nH]c2C1,-12.5%
15,CCC(C)N(Cc1sccc1C)C(=O)c1cnc[nH]1 (centres undefined),-6.28%
16,CC1c2ncc(COCC3CCOCC3)n2CCN1Cc1cccnc1 (centres undefined),-4.06%
17,COc1ccc(CN2CCO[C@H]3CN(C(C)=O)CC[C@H]3C2=O)cc1,19.5%
18,O=C1CC(c2ccccc2)c2c(c(C(=O)O)cn2-c2ccccc2)N1 (centres undefined),-10.7%
19,CN(Cc1cccnc1)CC1CNCc2nccn2C1 (centres undefined),4.1%
20,Cc1ncsc1CN1C[C@@H]2COC[C@]2(CNC(=O)c2ccco2)C1,-10.4%
21,CC(=O)N(C)Cc1ccccc1NC(=O)c1ccccc1C,-2.28%
22,CCc1nccn1C1CCCN(C(=O)c2csc(NC(C)=O)n2)C1 (centres undefined),-16.5%
